How the values were obtained:
[1] = test system: human MPB derived CD34^+ cells; experiment: long term repopulating potential (LTRP) in secondary transplanted (2 T) NSG mice; type: in vivo; conditions: CD34^+ cells cultured 36-42 h and 72-96 h; 6 weeks post 2 T
From the text: (§1) NOD.Cg-Prkdcscid Il2rgtm1Wjl/SzJ (NSG) mice were purchased from The Jackson Laboratory (Bar Harbor, Me.). All animals were bred and maintained in a specific pathogen-free environment and all experiments were approved by the Institutional Animal Care and Use (IACUC) Committee. Male and female NSG mice aged 8 to 14 weeks old were fed doxycycline chow (TestDiet; Modified Prolab RMH-1500 with 0.0625% doxycycline) a week prior to, during and for 2 weeks post irradiation. Human engraftment was analyzed in bone marrow (BM), via BM aspirates performed at 6 and 12 weeks from left and right femurs. After sacrifice at 24 weeks, marrow from all of the primary mice (1 T) was harvested. Peripheral blood analysis was also performed in some experiments. Secondary transplants (2 T) were performed after mouse CD45^+ cells were depleted from BM harvested from each 1 T mouse separately, using Biotin Rat Anti-Mouse CD45 (BD Biosciences 553078) and Streptavidin Particles Plus-DM (BD Biosciences 557812) and injected into one irradiated (280 cGy) secondary NSG mouse. For calculating competitive repopulating units (CRU) from limiting dilution transplantation, the L-CALC^TM software (Stem Cell Technologies) was used. All of the mice used for this study were randomly assigned to a treatment group. No animals were excluded from the analysis.

CD34^+38^−90^+ cells = experiment: Annexin V apoptosis assay in HSCs; type: cell-based, human; conditions: annexin V^+ CD34^+38^−90^+ cells
From the text: PE-Cyanine 7 or APC-EFLUOR® 780, APC- or PE-conjugated antibodies directed to human CD34 (BD Biosciences 560710 or 555824), CD38 (eBiosciences, San Diego, Calif. 47-0389-42), CD90 (BioLegend 328120), CD45RA (eBiosciences 17-0458-42), CD49f (BD Biosciences 555736), CD45 (BD 55485 or Biolegend 304026), CD33 (eBiosciences 25-0338-42), CD19 (BD Biosciences 557791), or CD3 (BD Biosciences 555340). Cells (˜5×10^5−1×10^6) were used to label with antibodies as per manufacturer instructions with the appropriate isotype controls. For phospho-flow, primary antibodies phospho-p38 (Thr180/Tyr182; 4092S), phospho-p44/42 MAPK (ERK ½) (Thr202/Tyr204; 4094S), and phospho-JNK (Thr183-Tyr185 PE conjugate; 5755S) (all from Cell Signaling) were used for staining overnight followed by wash and secondary antibody stain including Goat anti-Rabbit IgG (H+L) or Goat anti-Rabbit IgG (H+L) or Pacific Blue (P-10994) antibody. Apoptosis assay was performed using PE Annexin V Apoptosis Detection Kit (BD Biosciences 559763) according to the manufacturer's instructions. Total ROS and mitochondrial specific ROS were detected using 10 μM CM-H2DCFDA (ThermoFisher Scientific C6827) and 5 μM MITOSOX™ Red (Red Mitochondrial Superoxide Indicator) (ThermoFisher Scientific M36008) respectively, following manufacturer's instructions.

human CD34^+ cells = experiment: GFP marking in human grafts of NSG mice; type: in vivo; conditions: limiting dilution transplant; also long-termed secondary human grafts
From the text: as §1, with “[…] Total ROS and mitochondrial specific ROS” for “For calculating competitive repopulating units (CRU) from limiting dilution transplantation, the L-CALC^TM software (Stem Cell Technologies) was used. All of the mice used for this study”, “detected using 10 μM CM-H2DCFDA (ThermoFisher Scientific C6827) and 5 μM MITOSOXTM Red (Red Mitochondrial Superoxide Indicator) (ThermoFisher Scientific M36008) respectively, following manufacturer's instructions.” for “randomly assigned to a treatment group. No animals were excluded from the analysis.”

Cc1ccc(-n2nc(C(C)(C)C)cc2NC(=O)Nc2ccc(OCCN3CCOCC3)c3ccccc23)cc1 [p38i, 1-[5-tert-butyl-2-(4-methylphenyl)pyrazol-3-yl]-3-[4-(2-morpholin-4-ylethoxy)naphthalen-1-yl]urea]
LTRP in 2 T mice [1]: restored the LTRP in 2 T mice to levels seen with unmanipulated HSPCs
apoptosis in the HSC compartment (CD34^+38^−90^+ cells): no difference
GFP marking (human CD34^+ cells): did not have any effect
